From patent US5939437A, “CCK and gastrin receptor ligands” (James Black Foundation Limited, priority 1994, dated 1999)

Legend:
CCKB = biological target: T1, CCKB (Mus musculus, UniProt P56481); assay: radioligand binding assay at the CCKB (CCK8 [sic]) receptor in mouse cortical membranes; conditions: [125I]-CCK8S 200 pM, 150 min at 21±3° C., read-out: CCKB pKi (converted)
T1 construct: The cortex was dissected, weighed and homogenised in 40 ml ice-cold buffer; from tissue; host or cells: cerebral cortex membranes of male CD1 mice (Charles River)
T1 sequence (P56481 1-453): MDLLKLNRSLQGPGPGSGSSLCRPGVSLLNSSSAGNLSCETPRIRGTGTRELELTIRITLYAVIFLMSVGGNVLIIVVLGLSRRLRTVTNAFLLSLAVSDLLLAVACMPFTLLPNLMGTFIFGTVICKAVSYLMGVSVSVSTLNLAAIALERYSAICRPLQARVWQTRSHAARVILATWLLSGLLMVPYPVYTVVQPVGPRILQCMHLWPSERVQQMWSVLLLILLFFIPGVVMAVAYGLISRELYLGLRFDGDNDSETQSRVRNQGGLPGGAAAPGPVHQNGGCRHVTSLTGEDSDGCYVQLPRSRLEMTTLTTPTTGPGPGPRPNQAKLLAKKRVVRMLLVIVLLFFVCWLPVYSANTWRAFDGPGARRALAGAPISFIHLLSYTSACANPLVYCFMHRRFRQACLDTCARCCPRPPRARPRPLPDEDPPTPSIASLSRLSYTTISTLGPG
Description: The compounds of the examples were tested for binding at the CCK8 receptor in mouse cortical membranes by means of a radioligand binding assay. The procedure was as follows: The whole brains from male mice (CD1 22-25 g; Charles River) were removed and placed in ice-cold buffer (pH7.2@21±3° C.) of the following composition (mM); 10 HEPES, 130 NaCl, 4.7 KCl, 5 MgCl2, 1 EDTA and containing 0.25 g.1^-1 bacitracin. The cortex was dissected, weighed and homogenised in 40 ml ice-cold buffer using a Teflon-in-glass homogeniser. The homogenate was centrifuged at 39,800 g for 20 min at 4° C., the supernatant discarded and the pellet resuspended by homogenisation in fresh buffer. The homogenate was recentrifuged (39,800 g; 20 min@4° C.) and the final pellet was resuspended in HEPES buffer to give a tissue concentration of 2 mg.ml^-1 (original wet weight). The membranes ([…]) were incubated for 150 min at 21±3° C. in a final volume of 0.5 ml with HEPES buffer containing [^25 I]-CCK8S (0.05 ml; 200 pM NEN 2200 Ci.mmol^-1) and competing compound. Total and non-specific binding of [^125 I]-CCK8S were defined using 0.05 ml of buffer and 0.05 ml of […] L-365,260, respectively. The assay was terminated by rapid filtration through pre-soaked Whatman GF/B 35 filters using a Brandell Cell harvester. The filters were washed (3×3 ml) with ice-cold 5 mM Tris-HCl (pH7.4@4° C.) and bound radioactivity determined by counting (1 min.) in a gamma-counter.

Gastrin = biological target: T2, Gastrin (Rattus norvegicus, UniProt P30553); assay: gastrin antagonist activity in an immature rat stomach assay (pentagastrin-stimulated acid secretion, isolated stomach); conditions: cumulative pentagastrin dose-response curves, 60 min after drug, read-out: Gastrin pKB (converted)
T2 construct: The stomach was excised and flushed with ca. 1 ml unbuffered physiological saline solution; from tissue; host or cells: isolated whole stomach of immature rats (33-50 g, ca. 21 days old)
T2 sequence (P30553 1-452): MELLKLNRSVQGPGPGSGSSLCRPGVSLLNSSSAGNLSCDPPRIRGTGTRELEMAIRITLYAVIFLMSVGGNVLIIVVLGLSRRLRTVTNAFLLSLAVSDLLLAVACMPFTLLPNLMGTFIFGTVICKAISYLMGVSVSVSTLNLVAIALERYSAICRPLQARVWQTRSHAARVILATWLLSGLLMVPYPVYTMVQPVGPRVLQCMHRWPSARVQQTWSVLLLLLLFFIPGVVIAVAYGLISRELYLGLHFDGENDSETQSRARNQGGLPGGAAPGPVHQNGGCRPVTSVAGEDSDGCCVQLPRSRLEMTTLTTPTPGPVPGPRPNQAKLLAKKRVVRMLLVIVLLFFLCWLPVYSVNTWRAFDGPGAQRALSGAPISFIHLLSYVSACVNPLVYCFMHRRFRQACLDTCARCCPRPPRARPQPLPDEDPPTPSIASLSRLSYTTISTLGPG
Description: The compounds of the examples were also tested for gastrin antagonist activity in an immature rat stomach assay. The procedure was follows:
The oesophagus of immature rats (33-50 g, ca. 21 days old) was ligated at the level of the cardiac sphincter and the duodenal sphincter was cannulated. The stomach was excised and flushed with ca. 1 ml unbuffered physiological saline solution. The fundus was punctured and cannulated. A further 4-5 ml of unbuffered solution was flushed through the stomach to ensure the preparation was not leaking. The stomach was lowered into a jacketed organ bath containing 40 ml of buffered solution containing 3×10^-8 M5methylfurmethide, maintained at 37° and gassed vigorously with 95% O2 /5% CO2. The stomach was continuously perfused at a rate of 1 ml min^-1 with unbuffered solution gassed with 100% O2 with the perfusate passing over an internally referenced pH-electrode fixed 12 cm above the stomach.
After 120 min of stabilisation the drugs were added directly to the serosal solution in the organ bath and after a further 60 min cumulative pentagastrin dose-response curves were started. Changes in acid secretion were monitored and the curves analysed according to Black et. al., Br. J. Pharmacol., 1985, 86, 581.

CCKA = biological target: T3, CCKA (Cavia porcellus, UniProt Q63931); assay: CCKA binding assay (guinea-pig pancreas membranes); conditions: [125I]-CCK8(S) 200 pM, 0.375 μM PD134,308 present, 150 minutes at 21±3° C., read-out: CCKA pKi (converted)
T3 construct: The pancreatata were homogenised in 40 ml ice-cold HEPES buffer; from tissue; host or cells: pancreas membranes of male Dunkin Hartley guinea-pigs
T3 sequence (Q63931 1-430): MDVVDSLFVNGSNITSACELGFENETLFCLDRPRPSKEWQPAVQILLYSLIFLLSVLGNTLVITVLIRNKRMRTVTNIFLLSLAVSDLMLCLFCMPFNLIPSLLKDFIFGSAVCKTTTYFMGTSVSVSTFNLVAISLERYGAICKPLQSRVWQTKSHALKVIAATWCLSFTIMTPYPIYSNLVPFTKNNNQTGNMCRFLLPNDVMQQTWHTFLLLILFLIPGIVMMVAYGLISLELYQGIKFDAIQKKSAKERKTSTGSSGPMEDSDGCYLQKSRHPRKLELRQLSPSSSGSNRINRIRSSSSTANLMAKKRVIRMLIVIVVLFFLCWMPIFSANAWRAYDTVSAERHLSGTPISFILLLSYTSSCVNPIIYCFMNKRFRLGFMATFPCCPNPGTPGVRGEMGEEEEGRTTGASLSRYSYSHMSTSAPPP
Description: The compounds of the examples were also tested in a CCKA binding assay as follows:
The pancreatata were removed from male guinea-pigs (200-300 g; Dunkin Hartley) and placed in ice-cold HEPES buffer (pH 7.2@21 ±3° C.). The pancreatata were homogenised in 40 ml ice-cold HEPES buffer using a polytron (Brinkman, PT10, setting 10) 4×1 second. The homogenate was centrifuged at 39,800 g for 15 min at 4° C. The supernatant was discarded and the pellet re-suspended using a Teflon-in-glass homogeniser in 20 volumes of fresh buffer and re-centrifuged as above. The final pellet was re-suspended using a Teflon-in-glass homogeniser to a tissue concentration of 1 mg.ml^-1 (original wet weight), and filtered through 500 μm pore-size Nytex mesh.
The membranes (400 μl; containing 0.375 μM PD134,308) are incubated for 150 minutes at 21±3° C. in a final volume of 0.5 ml with HEPES buffer containing [^125 I]-CCK8 (S) (50 μl; 200 pM) and competing compound. Total and non-specific binding of [^125 I]-CCK^8 (S) are defined using 50 μl of buffer and 50 μl of 100 nM L-364,718respectively. The assay is terminated by rapid filtration through pre-soaked Whatman GF/B filters using a Brandell Cell Harvester. The filters were washed (3×3 ml) with ice-cold 50 mM Tris HCl (pH 7.4 at 4° C. and bound radioactivity is determined by counting (1 min) in a gamma counter.

Structure (SMILES)	Ki (CCKB)	Kb (Gastrin)	Ki (CCKA)
O=C(O)c1cc(NC(=O)[C@H](Cc2ccccc2)NC(=O)c2cc([N+](=O)[O-])ccc2C(=O)NCC23CC4CC(CC(C4)C2)C3)cc(C(=O)O)c1 [Example 15, 1-(1S-(3,5-dicarboxyphenylamino-carbonyl)-2-phenylethylaminocarbonyl)-2-(l-adamantanemethyl-aminocarbonyl)-5-nitrobenzene]	1000 nM	316 nM	1000 nM
Nc1ccc(C(=O)N[C@@H](Cc2ccccc2)C(=O)Nc2cc(C(=O)O)cc(C(=O)O)c2)c(C(=O)NCC23CC4CC(CC(C4)C2)C3)c1 [Example 16, 1-(1S-(3,5-dicarboxyphenylamino-carbonyl)-2-phenylethylaminocarbonyl)-2-(1-adamantanemethyl-25 aminocarbonyl)-4-aminobenzene]	200 nM	63.1 nM	3980 nM
O=C(O)c1cc(NC(=O)[C@H](Cc2ccccc2)NC(=O)c2cccc3c2C(=O)N(CC24CC5CC(CC(C5)C2)C4)C3)cc(C(=O)O)c1 [Example 26, 7-(1S-(3,5-dicarboxyphenylamino-carbonyl)-2-phenylethylaminocarbonyl)-2-(1-adamantanemethyl)indol-1-one]	100 nM	63.1 nM	3160 nM

The remaining lines, values ahead:

Ki (CCKB)	Kb (Gastrin)	Ki (CCKA)	Structure (SMILES)
50.1 nM	20 nM	12600 nM	Nc1ccc(C(=O)NCC23CC4CC(CC(C4)C2)C3)c(C(=O)N[C@@H](Cc2ccccc2)C(=O)Nc2cc(C(=O)O)cc(C(=O)O)c2)c1 [Example 17, 1-(1S-(3,5-dicarboxyphenylamino-carbonyl)-2-phenylethylaminocarbonyl)-2-(1-adamantanemethyl-aminocarbonyl)-5-aminobenzene]
158 nM	12.6 nM	2000 nM	COc1ccc(C(=O)NCC23CC4CC(CC(C4)C2)C3)c(C(=O)N[C@@H](Cc2ccccc2)C(=O)Nc2cc(C(=O)O)cc(C(=O)O)c2)c1 [Example 19, 1-(1S-(3,5-dicarboxyphenylamino-carbonyl)-2-phenylethylaminocarbonyl)-2-(1-adamantanemethyl-aminocarbonyl)-5-methoxybenzene]
